Reference: ChEMBL document CHEMBL4483862, “Open-source discovery of chemical leads for next-generation chemoprotective antimalarials” (2018)

Tested on: Plasmodium berghei
Assay: Luciferase/luciferin-expressing antifolate-resistant parasites were used to infect a culture of HepG2 cells that were pre-incubated with compounds. Infected hepatocytes emit light due to the luciferase reaction. Assay results are presented as the percent inhibition of light emission compared to control. […]
Assay type: functional
Settings: sporozoite; for IC90: read-out: LUCIFERASE INFECTION ASSAY - IC90
[1] = read-out: LUCIFERASE INFECTION ASSAY - IC50

SMILES	IC90	IC50 [1]	further results
N#CC1c2ccccc2Oc2ccccc21	> 15.9 µM	–	IC50 (FFLUC_HILL_SLOPE 8.54, FFLUC_R_SQUARED 0.413, HEPG2TOX_HILL_SLOPE 16, HEPG2TOX_R_SQUARED 0.746, PBLUC_HILL_SLOPE 2.78, PBLUC_R_SQUARED 0.395, read-out: LUCIFERASE INFECTION ASSAY - IC50): 10.4 µM
FC(F)(F)c1cnc(N/N=C/c2cccs2)c(Cl)c1	10.6 µM	–	IC50 (HEPG2TOX_HILL_SLOPE 9.1, HEPG2TOX_R_SQUARED 0.955, PBLUC_HILL_SLOPE 28.7, PBLUC_R_SQUARED 0.321, read-out: LUCIFERASE INFECTION ASSAY - IC50): 9.82 µM
CCOC(=O)c1ccc(NC2CCCCC2)c(/N=C/c2cc(Cl)cc(Cl)c2O)c1	2.39 µM	–	IC50 (HEPG2TOX_HILL_SLOPE 1.82, HEPG2TOX_R_SQUARED 0.941, PBLUC_HILL_SLOPE 4.39, PBLUC_R_SQUARED 0.446, read-out: LUCIFERASE INFECTION ASSAY - IC50): 1.45 µM
O=C(Nc1ccc(Oc2ccccc2)cc1)c1noc(-c2ccccc2)n1	6.61 µM	–	IC50 (PBLUC_HILL_SLOPE 3.74, PBLUC_R_SQUARED 0.217, read-out: LUCIFERASE INFECTION ASSAY - IC50): 3.67 µM
Cc1cc(N(C)Cc2ccccc2Br)nc(N)n1	2.29 µM	–	IC50 (HEPG2TOX_HILL_SLOPE 1.99, HEPG2TOX_R_SQUARED 0.929, PBLUC_HILL_SLOPE 3.52, PBLUC_R_SQUARED 0.797, read-out: LUCIFERASE INFECTION ASSAY - IC50): 1.23 µM
CCC(CC)CN1C[C@H](OCc2ccccc2)C[C@H]1C(=O)NC(c1ccccc1)c1ccccc1	> 7.01 µM	> 7.01 µM	–
COc1ccc(-c2cnc3cnc(-c4cccc(C)c4C)cn23)cn1	> 9.99 µM	–	IC50 (PBLUC_HILL_SLOPE 7.63, PBLUC_R_SQUARED 0.171, read-out: LUCIFERASE INFECTION ASSAY - IC50): 8.65 µM
O=C(NNC(=S)NC(=O)c1cn(-c2ccccc2)nc1-c1ccc(Br)cc1)c1ccncc1	3.48 µM	–	IC50 (HEPG2TOX_HILL_SLOPE 6.43, HEPG2TOX_R_SQUARED 0.426, PBLUC_HILL_SLOPE 13.5, PBLUC_R_SQUARED 0.624, read-out: LUCIFERASE INFECTION ASSAY - IC50): 2.96 µM
Clc1cccc(-c2cc3[nH]c(NCc4ccccc4)nc3cn2)c1	> 10 µM	> 10 µM	–
Cc1ccc(S(=O)(=O)Nc2ccc(Nc3nccn4c(-c5ccc(OC(F)(F)F)cc5)cnc34)cc2)cc1	3.49 µM	–	IC50 (PBLUC_HILL_SLOPE 1.58, PBLUC_R_SQUARED 0.687, read-out: LUCIFERASE INFECTION ASSAY - IC50): 0.867 µM
CCOC(=O)c1c(-c2ccccc2)oc2ccc(NS(=O)(=O)c3ccc(CC)cc3)cc12	9.53 µM	–	IC50 (FFLUC_HILL_SLOPE 0.825, FFLUC_R_SQUARED 0.206, HEPG2TOX_HILL_SLOPE 3.18, HEPG2TOX_R_SQUARED 0.941, PBLUC_HILL_SLOPE 22.5, PBLUC_R_SQUARED 0.586, read-out: LUCIFERASE INFECTION ASSAY - IC50): 8.65 µM
CC(C)c1ccc(/C=N/NC(=O)CC#N)cc1	> 14.4 µM	> 14.4 µM	–
COc1ccccc1C(=O)c1cnc(Nc2cccc(-c3ccccc3)c2)[nH]1	> 8.93 µM	–	IC50 (HEPG2TOX_HILL_SLOPE 9.5, HEPG2TOX_R_SQUARED 0.78, PBLUC_HILL_SLOPE 12, PBLUC_R_SQUARED 0.218, read-out: LUCIFERASE INFECTION ASSAY - IC50): 8.03 µM
O=C(Nc1ccccc1)c1ccc(CN2CCCC(C(F)(F)F)C2)cc1 (configuration not stated)	8.25 µM	2.2 µM	–
COc1ccc(CCN2C(=O)N(CC(C)C)C(=O)C23CCN(C2CCc4ccccc4C2)CC3)cc1 (configuration not stated)	2.72 µM	–	IC50 (HEPG2TOX_HILL_SLOPE 52.5, HEPG2TOX_R_SQUARED 0.896, PBLUC_HILL_SLOPE 13.1, PBLUC_R_SQUARED 0.487, read-out: LUCIFERASE INFECTION ASSAY - IC50): 2.3 µM
Cc1ccc2[nH]c(-c3ccccc3O)nc2c1	1.78 µM	–	IC50 (HEPG2TOX_HILL_SLOPE 1.55, HEPG2TOX_R_SQUARED 0.794, PBLUC_HILL_SLOPE 15.6, PBLUC_R_SQUARED 0.425, read-out: LUCIFERASE INFECTION ASSAY - IC50): 1.54 µM
Clc1cccc(-c2cnc3sc(NCCc4ccncc4)nn23)c1	> 9.27 µM	–	IC50 (HEPG2TOX_HILL_SLOPE 2.13, HEPG2TOX_R_SQUARED 0.945, PBLUC_HILL_SLOPE 2.85, PBLUC_R_SQUARED 0.464, read-out: LUCIFERASE INFECTION ASSAY - IC50): 5.6 µM
N#Cc1ccnc(N2CCN(c3ncnc4scc(-c5ccccc5)c34)CC2)c1	> 10 µM	> 10 µM	–
Cn1cnnc1SCC(=O)NC(Cc1c[nH]c2ccccc12)C(=O)O (configuration not stated)	> 10 µM	> 10 µM	–
COC(=O)c1ccc(S(=O)(=O)N2c3ccccc3CCC2C)cc1 (configuration not stated)	> 10 µM	> 10 µM	–
COC(=O)c1sccc1N/N=C(\C#N)S(=O)(=O)c1ccc(Cl)cc1	> 8.6 µM	> 8.6 µM	–
